The values below come from PubChem BioAssay (NCI).

The structures appear in SMILES notation. Several values for one entry are separate records, joined by “and”; a condition that tells them apart may be missing. Equal values may be shown once.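 In this assay, cells in 96-well plates receive the compound at five concentrations for 48 hours. Endpoints are linearly interpolated between the surrounding concentrations. At the GI50, growth is halved. TGI is the concentration that stops growth completely.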 A value given as a limit tells only on which side of the number the result lay.

Test in all cases: NCI-60 cell line screen, 48 h
For test [1], the system named is OVCAR-8 ovarian.
Test [2] concerns COLO 205 colon.
The test system of test [3] is NCI-H522 lung.
The test system of test [4] is OVCAR-5 ovarian.
The test system of test [5] is UACC-62 melanoma.
Test [6] concerns T-47D breast.
Test [7] relates to IGROV1 ovarian.
For test [8], the system named is SR leukemia.
Test [9] deals with SK-MEL-5 melanoma.
Test [10] deals with NCI/ADR-RES ovarian.

As for `CCCCCCN1C(=O)/C(=c2\sc3n(c2=O)C2C(NN=3)N(CC)C(=O)N2CC)c2ccccc21` (centres undefined), the GI50 in [1] is 1.47 µM; in test [2] it was 2.21 µM; in [3] it was 1.45 µM; in test [4] it was 2.03 µM; in [5], 2.89 µM; in test [6], 1.66 µM. The figures for the GI50 in [7], in test [8] and in test [9] were 1.63 µM, 1.73 µM and 3.48 µM, respectively. Also, the TGI in [1] was above 50 µM; in test [2], 38.3 µM; in [3], above 50 µM; in [4] it was above 50 µM; in test [5], above 50 µM; in test [6] it was above 50 µM. Also, the TGI in [7], in test [8] and in test [9] was above 50 µM in each case.

Take `O=c1c2cc(Br)ccc2oc2ccc(Br)cc12`: the TGI in [10], in test [1], in [2], in test [3], in [4] and in test [5] was above 100 µM in each case. For the same molecule, the TGI in test [6], in test [7] and in [9] was above 100 µM in each case.

As for `Clc1nc(Cl)c2ncn(C/C=C\Cn3cnc4c(Cl)nc(Cl)nc43)c2n1`, the GI50 was 2.46 µM in test [10]; 2.02 µM in test [1]; 2.09 µM in test [2]; 1.76 µM in test [3]; 5.52 µM in test [4]; 2.04 µM in [5]. For the same molecule, the GI50 was 0.951 µM in [6], 1.17 µM in test [7] and 2.92 µM in [9]. Moreover, the TGI in test [10] was 8.01 µM; in test [1] it was 6.39 µM; in test [2] it was 4.82 µM; in test [3], 4.02 µM; in test [4], 18.4 µM; in test [5], 4.19 µM. The TGI came to 2.79 µM in test [6], 2.94 µM in test [7] and 10.5 µM in [9].

As for `CCCCCCC(C)CC(CCCCCC)NCCOC(=O)c1ccc([N+](=O)[O-])cc1` (centres undefined), the TGI was 58.8 µM and 32.1 µM in test [10]; 22.1 µM and 19.7 µM in test [1]; 17.9 µM and 12.8 µM in [2]; 28.4 µM and 26.2 µM in test [3]; > 100 µM and 50 µM in test [4]; 28.7 µM and 26.6 µM in test [5]. For the same molecule, the TGI in [6] was 39.3 µM and 38.1 µM; in test [7] it was 27 µM and 25.1 µM; in test [9] it was 28.4 µM and 23.4 µM.

As for `COc1ccc(-c2ccc(/C=N/n3cn[nH]c3=S)o2)c([N+](=O)[O-])c1`, the GI50 was 30.5 µM in [10]; 38.2 µM in test [1]; 45.6 µM in test [2]; 40.2 µM in [3]; 97.1 µM in test [4]; 41.1 µM in test [5]. Also, the GI50 in test [6] is 51.8 µM; in test [7] it was 39.6 µM. Also, the TGI in test [10] was 94 µM; in [1], above 100 µM; in [2], above 100 µM; in test [3] it was above 100 µM; in test [4], above 100 µM; in test [5], above 100 µM. The TGI in test [6] and in test [7] was above 100 µM throughout.

As for `[N-]=[N+]=Nc1ncc(-c2ccc(C(F)(F)F)cc2)c(NC2CCCCCC2)n1`, the GI50 in test [10], in [1], in test [2], in test [4], in test [5] and in [6] was above 10 µM throughout. Moreover, the GI50 in test [7], in [8] and in test [9] was above 10 µM each time. For the same molecule, the TGI in [10], in test [1], in [2], in test [4], in test [5] and in test [6] was above 10 µM each time. Moreover, the TGI in [7], in test [8] and in test [9] was above 10 µM each time.

On to `CCOC(=O)c1sc(=S)c2c(C(=O)c3ccccc3)c(C(=O)c3ccccc3)sc2c1C(=O)OCC`, for which the GI50 in test [1] was 3.44 µM; in test [2], 15.8 µM; in [3], 2.66 µM; in [5], 2.99 µM; in [6], 8.64 µM; in test [7], 5.24 µM. The GI50 in [8] was 2.58 µM; in test [9], 2.38 µM. Also, the TGI in [1] was above 100 µM; in test [2] it was 45.6 µM; in test [3], 6.89 µM; in test [5], 17.8 µM; in test [6], above 100 µM; in test [7], 85.7 µM. The TGI in test [8] amounted to 5.98 µM; in test [9], 5.76 µM.
